Results from patent US11472778B2, “Hepatitis C virus NS3/4A protease inhibitors” (priority 2017, dated 2022).
Like-named read-outs stand apart in the source and are kept apart here.

Tests used:
[1] = biological target: T1, GT1a D168A NS3/4A protease (UniProt P27958, C1185S/D1194A, species not given); format: biochemical, Hepatitis C virus; details: read-out: Ki (nM) GT1a D168A NS3/4A Protease
T1 construct: Ki (nM) GT1a D168A NS3/4A Protease
Description: (§1) For each assay, 2 nM of NS3/4A protease (GT1, D168A and GT3) was pre-incubated at room temperature for 1 h with increasing concentration of inhibitors in assay buffer [50 mM Tris, 5% glycerol, 10 mM DTT, 0.6 mM LDAO, and 4% dimethyl sulfoxide]. Inhibition assays were performed in nonbinding surface 96-well black half-area plates (Corning) in a reaction volume of 60 μt. […] Three independent data sets were collected for each inhibitor with each protease construct.
as §1, with “(GT1a” for “(GT1, D168A”, “D168A)” for “GT3)”, “(50” for “[50”, “sulfoxide, pH 7.5).” for “sulfoxide].”, “non-binding” for “nonbinding”, “μL.” for “μt.”
(§2) For each assay, 2 nM of NS3/4A protease (GT1a, R155K and D168A) was pre-incubated at room temperature for 1 h with increasing concentration of inhibitors in assay buffer (50 mM Tris, 5% glycerol, 10 mM DTT, 0.6 mM LDAO, and 4% dimethyl sulfoxide, pH 7.5). Inhibition assays were performed in non-binding surface 96-well black half-area plates (Corning) in a reaction volume of 60 μL. […] Three independent data sets were collected for each inhibitor with each protease construct. […] Gibbs free energy of binding was calculated using the following equation: ΔG=RTlnKi

[2] = biological target: GT1a D168A NS3/4A protease; format: biochemical, Hepatitis C virus; details: Table 3; Ki D168A relative to GT1a WT
Description: as §1
(§3) For each assay, 2 nM of NS3/4A protease (GT1a and D168A) was pre-incubated at room temperature for 1 h with increasing concentration of inhibitors in assay buffer (50 mM Tris, 5% glycerol, 10 mM DTT, 0.6 mM LDAO, and 4% dimethyl sulfoxide, pH 7.5). Inhibition assays were performed in non-binding surface 96-well black half-area plates (Corning) in a reaction volume of 60 μL. […] Three independent data sets were collected for each inhibitor with each protease construct.
as §2

[3] = biological target: T2, wild-type GT1a NS3/4A protease (UniProt P27958, C1185S, species not given); format: biochemical, Hepatitis C virus; details: read-out: Ki (nM) GT1a WT NS3/4A Protease
T2 construct: Ki (nM) GT1a WT NS3/4A Protease
Description: as §1, §3, §2

GT3a NS3/4A protease = biological target: T3, GT3a NS3/4A protease (Hepatitis C virus genotype 3a, UniProt Q81495); assay: biochemical; details: for Ki (Fold change) GT3a NS3/4A Protease: Table 3, Ki GT3a relative to GT1a WT
T3 construct: drug-resistant variant D168A, and GT3a NS3/4A protease; made in house; host or cells: Escherichia coli BL21(DE3)
Description: as §1

[4] = system: wild-type HCV replicon in Huh7 cells; assay: Cell-based drug susceptibility (replicon) assay, wild-type; details: Hepatitis C virus, read-out: Replicon EC50 (nM) WT
Description: (§4) Mutations (R155K, A516T, D168A and D168V) were constructed by site-directed mutagenesis using a Con1 (genotype 1b) luciferase reporter replicon containing the H77 (genotype 1a) NS3 sequence.
(§5) Replicon RNA of each protease variant was introduced into Huh7 cells by electroporation. Replication was then assessed in the presence of increasing concentrations of protease inhibitors by measuring luciferase activity (relative light units) 96 h after electroporation.
(§6) Mutations (R155K, D168A and A156T) were constructed by site-directed mutagenesis using a Con1 (genotype 1b) luciferase reporter replicon containing the H77 (genotype 1a) NS3 sequence.^6 Replicon RNA of each protease variant was introduced into Huh7 cells by electroporation. Replication was then assessed in the presence of increasing concentrations of protease inhibitors by measuring luciferase activity (relative light units) 96 h after electroporation.

[5] = system: HCV replicon A156T variant in Huh7 cells; assay: microbe, parasite or virus in culture; format: cell-based, Hepatitis C virus; details: for EC50: Hepatitis C virus; for Replicon EC50 (Fold change) A156T: Table 4, relative to WT replicon
Description: as §4, §5, §6

[6] = system: HCV replicon D168A variant in Huh7 cells; assay: microbe, parasite or virus in culture; format: cell-based, Hepatitis C virus; details: for EC50: Hepatitis C virus; for Replicon EC50 (Fold change) D168A: Table 4, relative to WT replicon
Description: as §4, §5, §6

[7] = system: HCV replicon R155K variant in Huh7 cells; assay: microbe, parasite or virus in culture; format: cell-based, Hepatitis C virus; details: for EC50: Hepatitis C virus; for Replicon EC50 (Fold change) R155K: Table 4, relative to WT replicon
Description: as §4, §5, §6

[8] = system: HCV replicon D168V variant in Huh7 cells; assay: microbe, parasite or virus in culture; format: cell-based, Hepatitis C virus; details: for EC50: Hepatitis C virus; for Replicon EC50 (Fold change) D168V: Table 4, relative to WT replicon
Description: as §4
Replicon RNA of each protease variant was introduced into Huh7 cells by electroporation. Replication was then assessed in the presence of increasing concentrations of protease inhibitors by measuring luciferase activity (relative light units) 96 h after electroporation. […]

[9] = Huh-7, 96 h, Table 2, Huh7 cells, luciferase 96 h
[10] = Huh-7, 96 h, read-out: Replicon EC50 (nM) A156T, Table 2, Huh7 cells, luciferase 96 h
[11] = Huh-7, read-out: Replicon EC50 (nM) A156T, Table 4
[12] = Huh-7, 96 h, read-out: Replicon EC50 (nM) D168A, Table 2, Huh7 cells, luciferase 96 h
[13] = Huh-7, read-out: Replicon EC50 (nM) D168A, Table 4
[14] = Huh-7, 96 h, read-out: Replicon EC50 (nM) R155K, Table 2, Huh7 cells, luciferase 96 h
[15] = Huh-7, read-out: Replicon EC50 (nM) R155K, Table 4
[16] = Huh-7, 96 h, read-out: Replicon EC50 (nM) D168V, Table 2, Huh7 cells, luciferase 96 h
[17] = Huh-7, read-out: Replicon EC50 (nM) D168V, Table 4

T3 sequence (Q81495 1033-1214): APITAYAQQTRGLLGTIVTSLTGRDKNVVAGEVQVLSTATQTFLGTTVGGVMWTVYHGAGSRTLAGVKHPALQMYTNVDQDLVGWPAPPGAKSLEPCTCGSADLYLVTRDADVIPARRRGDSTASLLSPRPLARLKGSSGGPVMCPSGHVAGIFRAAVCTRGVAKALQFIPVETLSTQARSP

SMILES	Ki ([1]; Table 1)	Ki ([1]; Table 3)	Ki (Fold change) GT1a D168A NS3/4A Protease [2]	Ki ([3]; Table 1)	Ki ([3]; Table 3)	Ki (GT3a NS3/4A protease)	Ki (Fold change) GT3a NS3/4A Protease (GT3a NS3/4A protease)	EC50 [4, 9]	EC50 ([4]; Huh-7, Table 4)	EC50 [5, 10]	EC50 [5, 11]	Replicon EC50 (Fold change) A156T [5]	EC50 [6, 12]	EC50 [6, 13]	Replicon EC50 (Fold change) D168A [6]	EC50 [7, 14]	EC50 [7, 15]	Replicon EC50 (Fold change) R155K [7]	EC50 [8, 16]	EC50 [8, 17]	other results
CCc1nc2ccc(OC)cc2nc1O[C@@H]1C[C@H]2C(=O)N[C@]3(C(=O)NS(=O)(=O)C4(C)CC4)C[C@H]3/C=C\CCCCC[C@H](NC(=O)OC3CCCC3)C(=O)N2C1 [Compound 23a, Cyclopentyl ((2R,6S,13aS,14aR,16aS,Z)-2-((3-ethyl-7-methoxyquinoxalin-2-yl)oxy)-14a-(((1-methylcyclopropyl)sulfonyl)carbamoyl)-5,16-dioxo-1,2,3,5,6,7,8,9,10,11,13a,14,14a,15,16,16a-hexadecahydrocyclopropa[e]pyrrolo[1,2-a][1,4]diazacyclopentadecin-6-yl)carbamate]	55.2 nM	55.2 ± 5.3 nM	(40) fold	1.37 nM	1.37 nM	186 nM	(136) fold	0.16 nM	0.16 nM	10.6 nM	10.6 nM	(66) fold	3.45 nM	3.45 nM	(22) fold	2.07 nM	2.07 nM	(13) fold	7.08 nM	7.08 nM	Replicon EC50 (Fold change) D168V [8]: (44) fold
COc1ccc2nc(Cl)c(O[C@@H]3C[C@H]4C(=O)N[C@]5(C(=O)NS(=O)(=O)C6(C)CC6)C[C@H]5/C=C\CCCCC[C@H](NC(=O)OC5CCCC5)C(=O)N4C3)nc2c1 [Compound 23c, Cyclopentyl ((2R,6S,13aS,14aR,16aS,Z)-2-((3-chloro-7-methoxyquinoxalin-2-yl)oxy)-14a-(((1-methylcyclopropyl)sulfonyl)carbamoyl)-5,16-dioxo-1,2,3,5,6,7,8,9,10,11,13a,14,14a,15,16,16a-hexadecahydrocyclopropa[e]pyrrolo[1,2-a][1,4]diazacyclopentadecin-6-yl)carbamate]	25.7 nM	25.7 ± 1.8 nM	(58) fold	0.44 nM	0.44 nM	61 nM	(139) fold	0.15 nM	0.15 nM	4.32 nM	4.32 nM	(29) fold	0.97 nM	0.97 nM	(6) fold	0.56 nM	0.56 nM	(4) fold	1.09 nM	1.09 nM	Replicon EC50 (Fold change) D168V [8]: (7) fold
COc1ccc2nc(C(F)(F)F)c(O[C@@H]3C[C@H]4C(=O)N[C@]5(C(=O)NS(=O)(=O)C6(C)CC6)C[C@H]5/C=C\CCCCC[C@H](NC(=O)OC5CCCC5)C(=O)N4C3)nc2c1 [Compound 23d, Cyclopentyl ((2R,6S,13aS,14aR,16aS,Z)-2-((7-methoxy-3-(trifluoromethyl)quinoxalin-2-yl)oxy)-14a-(((1-methylcyclopropyl)sulfonyl)carbamoyl)-5,16-dioxo-1,2,3,5,6,7,8,9,10,11,13a,14,14a,15,16,16a-hexadecahydrocyclopropa[e]pyrrolo[1,2-a][1,4]diazacyclopentadecin-6-yl)carbamate]	110 nM	110 ± 14 nM	(14) fold	8.14 nM	8.14 nM	433 nM	(53) fold	4.04 nM	4.04 nM	75.9 nM	75.9 nM	(19) fold	8.46 nM	8.46 nM	(2) fold	6.9 nM	6.9 nM	(2) fold	11.4 nM	11.4 nM	Replicon EC50 (Fold change) D168V [8]: (3) fold
